Assay results reported in patent US9453031B2, “Chemical entities” (Fundación Centro Nacional de Investigaciones Oncológicas …, priority 2013, dated 2016).

Legend:
ATR [1] = molecular target: T1, ATR (Homo sapiens (Human), UniProt Q13535); test: Cellular ATR inhibition, western blot of CHK1(S345) phosphorylation in hydroxyurea treated cells; assay type: cell-based; conditions: HT29 cells
Description: In addition to the selective system described above, Example compounds presented here were screened for their ability to inhibit intracellular ATR using a western blot assay to detect phosphorylation of the ATR substrate CHK1(S345) in hydroxyurea treated cells. HT29 cells are plated at 500,000 cells per well in 6-well plates in RPMI media (Sigma R6504) supplemented with 10% foetal bovine serum (Sigma F7524), Penicillin/Streptomycin solution diluted 1:100 (Gibco 15070-063), and fungizone (Gibco, 15290-018), and allowed to adhere overnight at 37° C. in 5% CO2. Compounds are then added to the cell media from a final concentration of 10 μM in 3-fold serial dilutions and the cells are incubated at 37° C. in 5% CO2. After 15 min, hydroxyurea (Sigma H8627) is added to a final concentration of 2.5 mM. After 30 min of treatment with hydroxyurea, the cells are washed in PBS, lysed adding 50 μl of in protein lysis buffer (50 mM Tris pH 7.5, 150 mM NaCl, 1% IGEPAL CO-630 (Sigma, Ref. 542334-100G-A), Phospho Stop (Roche, Ref. 04906837001) and Complete Mini EDTA free (Roche, Ref. 11836170001)). The protein content of the lysates was determined by the modified method of Bradford (Sigma, Ref. B6916). The proteins were resolved by SDS-PAGE and transferred to nitrocellulose membrane (VWR International Eurolab, Ref. 732-4007). The membranes were incubated overnight at 4° C. with antibodies specific for total CHK1 (Santa Cruz Biotechnology, sc-8404), phosphoserine-345 CHK1 (Cell Signaling Technology #2348) they were washed and then incubated with IRDye800 conjugated anti-mouse (Pierce/Cultek, 35521) and Alexa Fluor 680 goat anti-rabbit IgG secondary antibodies (Invitrogen, A21076). The bands were visualized and quantified using an Odyssey infrared imaging system (Li-Cor Biosciences). The percentage of phosphorylated CHK1 vs total CHK1 in cells treated with hydroxyurea was taken as hundred percent of phosphorylation. The percentage of CHK1 phosphorylation is finally plotted against concentration for each compound and EC50s for intracellular ATR inhibition are calculated using ActivityBase from IDBS.

ATR [2] = molecular target: T1, ATR; test: Cellular ATR inhibition, pChk1 Ser345 after UV mimetic 4NQO; assay type: cell-based; conditions: HT-29, read-out: UV mimetic inhibition of CHK1P at 10 μM (%); 10 μM compound, 3 μM 4NQO, HT29 cells
Source text: (§1) ATM and ATR have distinct and overlapping responses to DNA damage. They must participate together and responses must be coordinated. Both pathways may be activated by ionizing radiation, and UV. As UV treatment is not practical for use in a high throughput cell assay, the UV mimetic 4NQO (Sigma) was chosen to activate the ATR and ATM DNA damage response pathway.
(§2) Chk1, a downstream protein kinase of ATR, has a key role in DNA damage checkpoint control, as well as Chk2 downstream of ATM. […] This assay measures a decrease in phosphorylation of Chk1 (Ser 345) and […] in HT29 colon adenocarcinoma cells following treatment with compound and the UV mimetic 4NQO. Compounds at 1 mM were created by diluting in 100% DMSO and then diluted 1:100 into assay media (RPMI, 10% FCS, 1% glutamine). Cells were plated in 6 well Costar plates at 5×10^5 cells per mL in 2 mL RPMI, 10% FCS, 1% glutamine and grown for 24 hrs. Following addition of compound the cells were incubated for 60 minutes. A final concentration of 3 μM 4NQO (prepared in 100% DMSO) was then added and the cells incubated for a further 60 mins. The cells are lysed and pChk1 Ser345 and pCHK2 Thr68 (Cell Signaling Technology, #2661) versus total CHK1 and CHK2 (Santa Cruz Biotechnology, se-5278) respectively has analysed by western blot as described above. The percentage of phosphorylated CHK1 versus total CHK1 or p-CHK2 versus total CHK2 in cells treated with 4NQO was taken as hundred percent of phosphorylation. The percentage of CHK1 or CHK2 phosphorylation is finally plotted against concentration for each compound and EC50s for intracellular ATR inhibition are calculated using ActivityBase from IDBS.

ATM = ATM (Homo sapiens (Human), UniProt Q13315); test: Cellular ATM inhibition, pCHK2 Thr68 after UV mimetic 4NQO; assay type: cell-based; conditions: HT-29, read-out: UV mimetic inhibition of CHK2P at 10 μM (%); 10 μM compound, 3 μM 4NQO, HT29 cells
Source text: as §1, §2

CYP 1A2 = CYP 1A2 (Homo sapiens (Human), UniProt P05177); test: CYP inhibition assay (P450-Glo); assay type: in vitro ADME; conditions: recombinant CYP
CYP 2C19 = CYP 2C19 (Homo sapiens (Human), UniProt P33261); test: CYP inhibition assay (P450-Glo); assay type: in vitro ADME; conditions: recombinant CYP
CYP 2D6 = CYP 2D6 (Homo sapiens (Human), UniProt P10635); test: CYP inhibition assay (P450-Glo); assay type: in vitro ADME; conditions: recombinant CYP
Eμmyc lymphoma cells = test: In vivo efficacy, mice injected intravenously with Eμmyc lymphoma cells; conditions: C57BL/6 mice
Description: The efficacy of compounds of the invention alone or in combination with chemotherapeutics agents were measured in vivo by implanting allografts or xenografts of cancer cells in rodents and treating the tumour-bearing animals with the compounds alone or in combination with chemotherapeutics agents.
Recipient mice were monitored for tumor formation by the presence of tumoral cells in the blood (LDH measurement), and twice a week by palpation of the pre-scapular and cervical lymph-nodes, once a week by sonography measurement of thoracic lymph-nodes size. […] Efficacy of the treatment was done evaluating the relative weight of all tumoral tissues (spleen, salivary lymph-nodes, mammary lymph-nodes, thymus and mesenteric lymph-nodes) versus body weight substrating the relative weight of same normal tissues. Bars represent standard error of the mean (n=8).

CYP 2C9 = CYP 2C9 (Homo sapiens (Human), UniProt P11712); test: CYP inhibition assay (P450-Glo); conditions: read-out: P450-2C9 IC50; recombinant CYP
CYP 3A4 = CYP 3A4 (Homo sapiens (Human), UniProt P08684); test: CYP inhibition assay (P450-Glo); conditions: read-out: P450-3A4 IC50; recombinant CYP
PI3K (p110α/p85α) = PI3K (p110α/p85α) (Homo sapiens (Human), UniProt P42336); test: PI3K alpha activity assay (ADP Hunter Plus); assay type: biochemical; conditions: 50 μM ATP, 30 μM PIP2; read-out: PI3Kα IC50
Description: The kinase activity was measured by using the commercial ADP Hunter™ Plus assay available from DiscoveRx (#33-016), which is a homogeneous assay to measure the accumulation of ADP, a universal product of kinase activity. […] The reaction was carried out for 1 hour at 25° C. Reagent A and B were sequentially added to the wells and plates were incubated for 30 min at 37° C. Fluorescence counts were read in a Victor instrument (Perkin Elmer) with the recommended settings (544 and 580 nm as excitation and emission wavelengths, respectively).

mTOR = mTOR (Homo sapiens (Human), UniProt P42345); test: mTOR activity assay (LanthaScreen); assay type: biochemical
Description: The enzymatic mTOR activity was measured using a LanthaScreen™ kinase activity assay (Invitrogen). The enzyme was purchased from Invitrogen (PV4754), as well as the GFP-labelled substrate (4EBP1-GFP; PV4759) and the Tb-antip4EBP1(pThr46) antibody (PV4757). The assay was performed in 50 Mm HEPES buffer, pH 7.5, containing 1.5 mM MnCl2, 10 mM MgCl2, 1 mM EGTA, 2.5 mM DTT and 0.01% Tween-20. The concentration of the assay components were the following: 0.24 nM mTOR kinase, 400 nM 4EBP1-GFP, […] and serial dilutions of the compound (inhibitor) to be evaluated. After 1 h incubation at room temperature, 20 mM EDTA was used to stop the reaction and terbium-labelled antibody (4 nM) added to detect phosphorylated product. The antibody associates with the phosphorylated product resulting in an increased TR-FRET value. The TR-FRET value (a dimensionless number) was calculated as the ratio of the acceptor signal (GFP, emission at 520 nm) to the donor signal (terbium, emission at 495 nm).

DNA-PK = DNA-PK (Homo sapiens (Human), UniProt P78527); test: DNAPK activity assay (ADP Hunter Plus); assay type: biochemical; conditions: 75 μM ATP
Description: The kinase activity was measured by using the commercial ADP Hunter™ Plus assay available from DiscoveRx (#90-0083), which is a homogeneous assay to measure the accumulation of ADP, a universal product of kinase activity. The enzyme, DNA-PK was purchased from Promega (#V5811). The assay was done following the manufacturer recommendations with slight modifications: Mainly the kinase buffer was replace by 15 mM HEPES, pH 7.5, 10 mM MgCl2, 20 mM NaCl, 1 mM EGTA, 0.1 mg/mL BGG, 0.02% Tween 20. The DNA-PK was assayed in a titration experiment to determine the optimal protein concentration for the inhibition assay. To calculate the […] of the Compounds, serial 1:3 dilutions of the compounds were added to the enzyme at a fixed concentration (2 U/μL). The enzyme was preincubated with the inhibitor and 200 μM DNA substrate and then ATP was added to a final 75 μM concentration. Reaction was carried out for 1 hour at 37° C. Reagent A and B were sequentially added to the wells and plates were incubated for 30 min at RT. Fluorescence counts were read in a EnVision instrument (Perkin Elmer) with the recommended settings (550 and 590 nm as excitation and emission wavelengths, respectively).

T1 sequence (Q13535 whole entry): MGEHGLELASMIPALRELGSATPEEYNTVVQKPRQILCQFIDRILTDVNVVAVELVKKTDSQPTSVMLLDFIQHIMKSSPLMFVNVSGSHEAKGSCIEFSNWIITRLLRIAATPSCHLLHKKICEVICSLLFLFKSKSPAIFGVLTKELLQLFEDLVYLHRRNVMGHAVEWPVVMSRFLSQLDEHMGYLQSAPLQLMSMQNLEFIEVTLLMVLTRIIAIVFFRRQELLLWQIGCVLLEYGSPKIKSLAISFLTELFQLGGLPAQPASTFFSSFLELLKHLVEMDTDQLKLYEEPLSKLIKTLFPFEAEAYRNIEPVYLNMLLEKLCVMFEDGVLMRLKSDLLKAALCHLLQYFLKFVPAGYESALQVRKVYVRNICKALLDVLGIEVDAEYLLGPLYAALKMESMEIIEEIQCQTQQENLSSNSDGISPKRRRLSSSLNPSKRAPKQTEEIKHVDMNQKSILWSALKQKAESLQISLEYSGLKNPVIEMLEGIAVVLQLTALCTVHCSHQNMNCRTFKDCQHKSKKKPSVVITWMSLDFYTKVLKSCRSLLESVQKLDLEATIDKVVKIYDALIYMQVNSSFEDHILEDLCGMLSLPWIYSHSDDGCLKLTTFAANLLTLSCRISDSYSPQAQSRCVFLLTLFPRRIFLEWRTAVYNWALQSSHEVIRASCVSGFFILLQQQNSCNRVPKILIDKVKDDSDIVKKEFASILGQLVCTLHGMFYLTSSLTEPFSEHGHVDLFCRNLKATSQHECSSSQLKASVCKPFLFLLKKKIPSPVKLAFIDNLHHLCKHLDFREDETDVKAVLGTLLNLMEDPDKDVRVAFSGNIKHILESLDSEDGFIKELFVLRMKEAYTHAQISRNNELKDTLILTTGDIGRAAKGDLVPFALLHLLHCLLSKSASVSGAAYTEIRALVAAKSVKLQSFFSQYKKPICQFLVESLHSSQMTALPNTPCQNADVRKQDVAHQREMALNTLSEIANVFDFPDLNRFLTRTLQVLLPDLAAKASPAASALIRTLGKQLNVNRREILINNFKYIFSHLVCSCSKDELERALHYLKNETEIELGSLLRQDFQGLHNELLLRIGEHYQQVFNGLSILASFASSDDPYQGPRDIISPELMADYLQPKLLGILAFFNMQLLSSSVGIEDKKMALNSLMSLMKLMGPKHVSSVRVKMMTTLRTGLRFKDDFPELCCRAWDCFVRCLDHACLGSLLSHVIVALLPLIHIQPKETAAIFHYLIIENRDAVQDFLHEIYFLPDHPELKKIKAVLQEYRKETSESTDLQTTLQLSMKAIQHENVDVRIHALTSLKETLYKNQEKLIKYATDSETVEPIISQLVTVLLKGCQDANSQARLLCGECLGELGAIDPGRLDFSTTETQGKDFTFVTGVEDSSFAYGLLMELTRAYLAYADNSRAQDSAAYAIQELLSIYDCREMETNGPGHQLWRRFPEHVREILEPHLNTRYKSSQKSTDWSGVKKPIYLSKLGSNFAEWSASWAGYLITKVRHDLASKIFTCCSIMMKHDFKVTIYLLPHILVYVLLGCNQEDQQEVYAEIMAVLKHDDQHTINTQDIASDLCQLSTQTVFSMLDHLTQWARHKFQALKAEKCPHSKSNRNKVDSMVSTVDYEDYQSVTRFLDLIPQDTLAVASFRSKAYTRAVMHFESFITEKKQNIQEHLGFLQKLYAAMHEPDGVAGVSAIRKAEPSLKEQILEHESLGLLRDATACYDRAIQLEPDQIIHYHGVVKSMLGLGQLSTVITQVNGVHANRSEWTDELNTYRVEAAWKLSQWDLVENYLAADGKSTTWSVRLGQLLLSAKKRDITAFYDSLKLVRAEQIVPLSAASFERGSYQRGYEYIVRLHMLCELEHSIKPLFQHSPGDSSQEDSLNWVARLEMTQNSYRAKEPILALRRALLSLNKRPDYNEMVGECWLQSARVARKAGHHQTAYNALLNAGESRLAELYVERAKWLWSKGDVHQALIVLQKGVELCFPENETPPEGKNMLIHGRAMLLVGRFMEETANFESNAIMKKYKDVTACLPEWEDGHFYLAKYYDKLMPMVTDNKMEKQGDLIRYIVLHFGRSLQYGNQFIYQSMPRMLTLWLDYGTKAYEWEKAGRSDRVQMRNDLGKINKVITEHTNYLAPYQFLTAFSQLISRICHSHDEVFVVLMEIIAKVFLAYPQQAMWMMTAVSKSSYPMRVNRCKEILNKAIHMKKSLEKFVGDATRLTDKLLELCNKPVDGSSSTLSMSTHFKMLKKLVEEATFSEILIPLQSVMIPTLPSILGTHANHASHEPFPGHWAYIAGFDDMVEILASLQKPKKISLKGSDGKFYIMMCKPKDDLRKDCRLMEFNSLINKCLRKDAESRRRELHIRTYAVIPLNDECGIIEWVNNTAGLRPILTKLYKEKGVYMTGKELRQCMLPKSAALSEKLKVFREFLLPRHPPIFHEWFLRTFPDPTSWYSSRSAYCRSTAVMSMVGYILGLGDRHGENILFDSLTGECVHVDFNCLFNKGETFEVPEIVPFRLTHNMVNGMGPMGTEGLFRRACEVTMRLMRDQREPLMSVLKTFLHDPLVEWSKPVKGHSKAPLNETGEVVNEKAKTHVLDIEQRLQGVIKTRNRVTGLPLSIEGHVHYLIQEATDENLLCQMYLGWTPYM
Sequence of PI3K (p110α/p85α) (P42336 whole entry): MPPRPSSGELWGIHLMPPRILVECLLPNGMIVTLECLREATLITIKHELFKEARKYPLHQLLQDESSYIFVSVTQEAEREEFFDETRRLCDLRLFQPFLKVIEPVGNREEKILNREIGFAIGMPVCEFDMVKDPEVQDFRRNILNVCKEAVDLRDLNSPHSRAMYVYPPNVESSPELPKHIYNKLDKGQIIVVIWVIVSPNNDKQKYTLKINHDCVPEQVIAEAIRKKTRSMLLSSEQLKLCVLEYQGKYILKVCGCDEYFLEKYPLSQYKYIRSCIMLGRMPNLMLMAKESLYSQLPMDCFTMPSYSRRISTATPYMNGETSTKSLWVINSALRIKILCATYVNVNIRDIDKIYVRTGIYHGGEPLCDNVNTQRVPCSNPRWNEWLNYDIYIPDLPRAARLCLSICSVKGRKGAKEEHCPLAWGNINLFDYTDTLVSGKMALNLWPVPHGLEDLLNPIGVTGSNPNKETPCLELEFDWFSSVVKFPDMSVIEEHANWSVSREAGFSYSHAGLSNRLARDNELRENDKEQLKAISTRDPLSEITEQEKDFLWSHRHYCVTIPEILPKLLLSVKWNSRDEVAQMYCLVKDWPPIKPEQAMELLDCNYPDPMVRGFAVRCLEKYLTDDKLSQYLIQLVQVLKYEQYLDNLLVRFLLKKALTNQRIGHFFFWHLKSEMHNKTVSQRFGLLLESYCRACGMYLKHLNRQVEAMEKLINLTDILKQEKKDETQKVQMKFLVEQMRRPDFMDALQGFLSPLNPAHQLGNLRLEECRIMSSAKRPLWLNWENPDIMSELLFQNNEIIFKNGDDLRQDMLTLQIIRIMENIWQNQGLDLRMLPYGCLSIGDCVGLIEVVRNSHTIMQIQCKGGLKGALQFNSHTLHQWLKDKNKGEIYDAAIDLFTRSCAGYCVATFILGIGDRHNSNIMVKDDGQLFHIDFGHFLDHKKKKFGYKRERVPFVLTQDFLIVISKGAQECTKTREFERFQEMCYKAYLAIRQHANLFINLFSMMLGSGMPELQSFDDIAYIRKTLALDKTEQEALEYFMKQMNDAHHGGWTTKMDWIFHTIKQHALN
Sequence of PI3K (p110α/p85α) (P27986 whole entry partner): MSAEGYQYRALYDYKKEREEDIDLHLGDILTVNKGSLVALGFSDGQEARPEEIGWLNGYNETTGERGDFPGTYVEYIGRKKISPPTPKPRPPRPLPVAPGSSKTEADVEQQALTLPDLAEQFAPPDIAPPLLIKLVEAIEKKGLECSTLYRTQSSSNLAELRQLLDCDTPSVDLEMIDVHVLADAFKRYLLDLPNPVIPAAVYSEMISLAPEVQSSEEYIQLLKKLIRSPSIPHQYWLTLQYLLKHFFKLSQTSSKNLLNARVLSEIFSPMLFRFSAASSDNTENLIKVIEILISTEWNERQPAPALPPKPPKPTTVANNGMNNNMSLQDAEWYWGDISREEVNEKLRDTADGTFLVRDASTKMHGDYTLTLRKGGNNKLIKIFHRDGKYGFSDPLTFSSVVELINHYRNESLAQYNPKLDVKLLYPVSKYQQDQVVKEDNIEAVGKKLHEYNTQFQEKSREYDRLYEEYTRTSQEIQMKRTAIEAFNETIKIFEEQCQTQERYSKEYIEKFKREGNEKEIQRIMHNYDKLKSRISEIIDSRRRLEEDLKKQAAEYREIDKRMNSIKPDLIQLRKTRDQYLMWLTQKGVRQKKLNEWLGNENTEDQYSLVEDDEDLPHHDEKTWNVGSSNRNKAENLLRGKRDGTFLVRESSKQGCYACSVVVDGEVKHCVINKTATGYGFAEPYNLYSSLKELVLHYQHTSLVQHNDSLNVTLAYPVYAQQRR
Sequence of CYP 2C9 (P11712 whole entry): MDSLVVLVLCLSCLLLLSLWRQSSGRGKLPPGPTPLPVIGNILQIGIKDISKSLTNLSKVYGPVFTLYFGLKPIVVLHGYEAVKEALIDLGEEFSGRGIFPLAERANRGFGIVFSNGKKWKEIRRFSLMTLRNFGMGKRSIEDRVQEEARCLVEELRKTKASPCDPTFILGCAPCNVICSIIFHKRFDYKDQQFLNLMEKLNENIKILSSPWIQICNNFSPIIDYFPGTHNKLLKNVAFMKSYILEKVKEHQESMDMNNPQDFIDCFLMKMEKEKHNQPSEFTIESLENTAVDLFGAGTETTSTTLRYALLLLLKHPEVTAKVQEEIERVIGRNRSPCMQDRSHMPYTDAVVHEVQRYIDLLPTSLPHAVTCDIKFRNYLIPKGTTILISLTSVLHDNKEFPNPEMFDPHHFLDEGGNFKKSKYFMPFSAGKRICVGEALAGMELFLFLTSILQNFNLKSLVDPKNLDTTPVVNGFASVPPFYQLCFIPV

| SMILES | EC50 (ATR [1]; hydroxyurea 2.5 mM) | inhibition at 10 µM (ATR [2]) | inhibition at 10 µM (ATM) | EC50 (ATR [1]; hydroxyurea […]) | IC50 (PI3K (p110α/p85α)) | IC50 (mTOR) | IC50 (DNA-PK) | also measured |
| --- | --- | --- | --- | --- | --- | --- | --- | --- |
| CNc1nc2ccccc2n1-c1nc2c(c(C(C)(C)S(C)(=O)=O)n1)OCC1COCCN21 (centres unmarked) [Example 8] | < 100 nM | 98% | 25% |  |  |  |  |  |
| O=S(=O)(Cc1nc(-c2cccc3[nH]ccc23)nc2c1OCC1COCCN21)C(F)(F)F (centres unmarked) [Example 5] | 100 to 1000 nM | 98% | 0% |  |  |  |  |  |
| CNc1nc2ccccc2n1-c1nc2c(c(C(C)(C)S(C)(=O)=O)n1)OC[C@@H]1COCCN21 [Example 11] | < 100 nM |  |  |  |  |  |  | IC50 (CYP 1A2): > 50000 nM; IC50 (CYP 2C19): > 50000 nM; IC50 (CYP 2D6): > 50000 nM; tumor growth inhibition (TGI) (Eμmyc lymphoma cells; 25 mg/kg oral once daily, day 33, compared to vehicle): 53%; tumor growth inhibition (TGI) (Eμmyc lymphoma cells; 50 mg/kg oral once daily, day 33, compared to vehicle): 74%; IC50 (CYP 2C9): 34000 nM; IC50 (CYP 3A4): 39000 nM |
| CNc1nc2cc(Cl)ccc2n1-c1nc2c(c(C3(S(C)(=O)=O)CC3)n1)OC[C@@H]1COCCN21 [Example 86] |  |  |  | > 1000 nM | 50000 nM | 3410 nM | 10000 nM |  |
| CNc1nc2ccc(Cl)cc2n1-c1nc2c(c(C3(S(C)(=O)=O)CC3)n1)OC[C@@H]1COCCN21 [Example 87] |  |  |  | > 1000 nM | 50000 nM | 10000 nM | 210 nM |  |
| CS(=O)(=O)C1(c2nc(-c3cccc4[nH]ccc34)nc3c2OC[C@H]2COCCN32)CCOCC1 [Example 10] | 100 to 1000 nM | 95% | 25% |  |  |  |  |  |
| C[C@@H]1CN(CC(=O)Nc2ccc3c(c2)Cc2cccc(-c4cc(=O)cc(N5CCOCC5)o4)c2S3)C[C@H](C)O1 [ATM inhibitor KU-60019, reference compound] |  | 38% | 99% |  |  |  |  |  |
| CC(C)(c1nc(-n2c(N)nc3ccccc32)nc2c1OC[C@@H]1COCCN21)S(C)(=O)=O [Example 70] |  |  |  | 100 to 1000 nM | 870 nM | 226 nM | 741 nM |  |
| Cc1cc2c(-c3nc4c(c(C5(S(C)(=O)=O)CCC5)n3)OC[C@@H]3COCCN43)cccc2[nH]1 [Example 93] | 100 to 1000 nM |  |  |  | 7440 nM | 117 nM | 10000 nM |  |
| CS(=O)(=O)C1(c2nc(-c3cccc4[nH]ccc34)nc3c2OC[C@@H]2COCCN32)CCOCC1 [Example 3] | < 100 nM | 98% | 0% |  |  |  |  | IC50 (CYP 1A2): > 50000 nM; IC50 (CYP 2C19): > 50000 nM; tumor growth inhibition (TGI) (Eμmyc lymphoma cells; 25 mg/kg oral once daily, day 23, compared to vehicle): 46%; IC50 (CYP 2C9): > 50000 nM; IC50 (CYP 3A4): > 50000 nM |
| CNc1nc2cc(Cl)ccc2n1-c1nc2c(c(C(C)(C)S(C)(=O)=O)n1)OC[C@@H]1COCCN21 [Example 80] |  |  |  | > 1000 nM | 13100 nM | 501 nM | 10000 nM |  |
| COc1cc(-c2nc3c(c(C(C)(C)S(C)(=O)=O)n2)OC[C@@H]2COCCN32)c2cc[nH]c2c1 [Example 72] | 100 to 1000 nM |  |  |  | 820 nM | 45.3 nM | 1600 nM |  |
| CNc1nc2ccc(Cl)cc2n1-c1nc2c(c(C(C)(C)S(C)(=O)=O)n1)OC[C@@H]1COCCN21 [Example 81] |  |  |  | > 1000 nM | 50000 nM | 5550 nM | 10000 nM |  |
| CNc1nc2ccccc2n1-c1nc2c(c(C3(S(C)(=O)=O)CCC3)n1)OC[C@@H]1COCCN21 [Example 92] | < 100 nM |  |  |  | 2750 nM | 1240 nM | 6150 nM |  |
| CS(=O)(=O)C1(c2nc(-c3cccc4[nH]ccc34)nc3c2OCC2COCCN32)CCOCC1 (centres unmarked) [Example 2] | < 100 nM | 98% | 0% |  |  |  |  |  |
| CC(C)(c1nc(-c2cccc3[nH]ccc23)nc2c1OCC1COCCN21)S(C)(=O)=O (centres unmarked) [Example 1] | < 100 nM | 99% | 0% |  |  |  |  |  |
